According to ChEMBL document CHEMBL4390673, “Identification of Novel Coumestan Derivatives as Polyketide Synthase 13 Inhibitors against Mycobacterium tuberculosis. Part II” (J Med Chem, 2019):
Converted amounts (≈) assume the structure as drawn.

How the values were obtained:
[1] = system: Polyketide synthase Pks13 (Mycobacterium tuberculosis (strain ATCC 25618 / H37Rv)), I6X8D2 [D1644G,N1640K]; assay: Inhibition of Pks13 D1644G/N1640K double mutant thioesterase domain in Mycobacterium tuberculosis H37Rv assessed as reduction in bacterial growth by microplate alamar blue assay
[2] = system: Polyketide synthase Pks13 (Mycobacterium tuberculosis (strain ATCC 25618 / H37Rv)), I6X8D2 [D1644G,N1640K]; assay: Inhibition of Pks13 D1644G/N1640K double mutant thioesterase domain in extensively drug-resistant Mycobacterium tuberculosis TF274 assessed as reduction in bacterial growth by microplate alamar blue assay
[3] = system: Polyketide synthase Pks13 (Mycobacterium tuberculosis (strain ATCC 25618 / H37Rv)), I6X8D2 [D1644G,N1640K]; assay: Inhibition of Pks13 D1644G/N1640K double mutant thioesterase domain in drug-susceptible Mycobacterium tuberculosis V4207 assessed as reduction in bacterial growth by microplate alamar blue assay
[4] = system: Polyketide synthase Pks13 (Mycobacterium tuberculosis (strain ATCC 25618 / H37Rv)), I6X8D2 [D1644G,N1640K]; assay: Inhibition of Pks13 D1644G/N1640K double mutant thioesterase domain in extensively drug-resistant Mycobacterium tuberculosis R506 assessed as reduction in bacterial growth by microplate alamar blue assay
[5] = system: Polyketide synthase Pks13 (Mycobacterium tuberculosis (strain ATCC 25618 / H37Rv)), I6X8D2 [D1644G,N1640K]; assay: Inhibition of Pks13 D1644G/N1640K double mutant thioesterase domain in multidrug-resistant Mycobacterium tuberculosis V2475 assessed as reduction in bacterial growth by microplate alamar blue assay
[6] = system: Polyketide synthase Pks13 (Mycobacterium tuberculosis (strain ATCC 25618 / H37Rv)), I6X8D2 [D1644G,N1640K]; assay: Inhibition of Pks13 D1644G/N1640K double mutant thioesterase domain in multidrug-resistant Mycobacterium tuberculosis KZN494 assessed as reduction in bacterial growth by microplate alamar blue assay

| SMILES | MIC=<90 [1] [µg/mL] | also measured |
| --- | --- | --- |
| CC[C@@H](CO)NCCN[C@@H](CC)CO | 1 (≈ 4.89 µM) | – |
| O=C1CCCN1Cc1c(O)ccc2oc3c4ccccc4oc(=O)c3c12 | > 64 | – |
| COc1ccc2oc3c4ccccc4oc(=O)c3c2c1CN1CCCC1=O | > 64 | – |
| O=C(c1cc2oc3c4ccccc4oc(=O)c3c2cc1O)N1CCCCC1 | > 64 | – |
| C[C@H]1COc2c(N3CCN(C)CC3)c(F)cc3c(=O)c(C(=O)O)cn1c23 | 0.25 (≈ 0.692 µM) | MIC=<90 [2]: 1 µg/mL (≈ 2.77 µM); MIC=<90 [3]: 0.125 µg/mL (≈ 0.346 µM); MIC=<90 [4]: 2 µg/mL (≈ 5.53 µM) |
| O=c1oc2ccccc2c2oc3c(Br)cc(O)c(CN4CCCCC4)c3c12 | 2 (≈ 4.67 µM) | – |
| NNC(=O)c1ccncc1 | 0.04 (≈ 0.292 µM) | MIC=<90 [2]: 8 µg/mL (≈ 58.3 µM); MIC=<90 [3]: 0.04 µg/mL (≈ 0.292 µM); MIC=<90 [5]: 16 µg/mL (≈ 117 µM); MIC=<90 [6]: 16 µg/mL (≈ 117 µM); MIC=<90 [4]: 8 µg/mL (≈ 58.3 µM) |
| O=c1oc2ccccc2c2oc3c(Cl)cc(O)c(CN4CCCCC4)c3c12 | 2 (≈ 5.21 µM) | – |
| O=C(c1c(O)ccc2oc3c4ccccc4oc(=O)c3c12)N1CCCCC1 | > 64 | – |
| O=c1oc2ccc(O)cc2c2oc3ccc(O)c(CN4CCCCC4)c3c12 | 0.5 (≈ 1.37 µM) | – |
| CC(C)(C)c1cc(O)c(CN2CCCCC2)c2c1oc1c3ccccc3oc(=O)c12 | 0.0625 to 0.125 (≈ 0.154 to 0.308 µM) | – |
| O=C1CCCCN1Cc1c(O)ccc2oc3c4ccccc4oc(=O)c3c12 | > 64 | – |
| CC1CCCN(Cc2c(O)ccc3oc4c5ccccc5oc(=O)c4c23)C1 (stereo unspecified) | 2 (≈ 5.5 µM) | – |
| CC(C)(C)c1cc(O)c(CN2CCCCC2)c2c1oc1c3ccc(O)cc3oc(=O)c12 | 0.0039 (≈ 0.00925 µM) | MIC=<90 [2]: 0.0039 µg/mL (≈ 0.00925 µM); MIC=<90 [3]: 0.0039 to 0.0078 µg/mL (≈ 0.00925 to 0.0185 µM); MIC=<90 [5]: 0.0156 µg/mL (≈ 0.037 µM); MIC=<90 [6]: 0.001 to 0.002 µg/mL (≈ 0.00237 to 0.00475 µM); MIC=<90 [4]: 0.0039 µg/mL (≈ 0.00925 µM) |
| O=c1oc2ccccc2c2oc3ccc(O)cc3c12 | > 64 | – |
| O=c1oc2ccccc2c2oc3cc(Br)c(O)c(CN4CCCCC4)c3c12 | > 64 | – |
| CCOc1ccc2oc3c4ccccc4oc(=O)c3c2c1CN1CCCCC1=O | > 64 | – |
| NCC[C@H](O)C(=O)N[C@@H]1C[C@H](N)[C@@H](O[C@H]2O[C@H](CN)[C@@H](O)[C@H](O)[C@H]2O)[C@H](O)[C@H]1O[C@H]1O[C@H](CO)[C@@H](O)[C@H](N)[C@H]1O | 1 (≈ 1.71 µM) | – |
| COc1c(N2C[C@@H]3CCCN[C@@H]3C2)c(F)cc2c(=O)c(C(=O)O)cn(C3CC3)c12 | 0.0625 to 0.125 (≈ 0.156 to 0.311 µM) | – |
| CC1CCCCN1Cc1c(O)ccc2oc3c4ccccc4oc(=O)c3c12 (stereo unspecified) | 1 (≈ 2.75 µM) | – |
| C[C@@H]1NC(=O)[C@@H](N)CNC(=O)[C@H](C2CCNC(=N)N2)NC(=O)/C(=C/NC(N)=O)NC(=O)[C@H](CNC(=O)CC(N)CCCN)NC1=O.N=C1NCCC([C@@H]2NC(=O)/C(=C/NC(N)=O)NC(=O)[C@H](CNC(=O)CC(N)CCCN)NC(=O)[C@H](CO)NC(=O)[C@@H](N)CNC2=O)N1 (stereo partly specified) | 1 | – |
| CC1CCN(Cc2c(O)ccc3oc4c5ccccc5oc(=O)c4c23)CC1 | 0.5 (≈ 1.38 µM) | – |

| SMILES | MIC=<90 [1] [µg/mL] | also measured |
| --- | --- | --- |
| O=c1oc2cc(O)c(O)cc2c2oc3cc(O)c(O)c(CN4CCCCC4)c3c12 | 32 (≈ 80.5 µM) | – |
| O=c1oc2cc(O)ccc2c2oc3ccc(O)c(CN4CCCCC4)c3c12 | 0.0039 (≈ 0.0107 µM) | MIC=<90 [2]: 0.0078 µg/mL (≈ 0.0213 µM); MIC=<90 [3]: 0.0078 µg/mL (≈ 0.0213 µM); MIC=<90 [5]: 0.0156 µg/mL (≈ 0.0427 µM); MIC=<90 [6]: 0.0039 µg/mL (≈ 0.0107 µM); MIC=<90 [4]: 0.0078 µg/mL (≈ 0.0213 µM) |
| CO[C@H]1/C=C/O[C@@]2(C)Oc3c(C)c(O)c4c(O)c(c(/C=N/N5CCN(C)CC5)c(O)c4c3C2=O)NC(=O)/C(C)=C\C=C\[C@H](C)[C@H](O)[C@@H](C)[C@@H](O)[C@@H](C)[C@H](OC(C)=O)[C@@H]1C | 0.125 (≈ 0.152 µM) | MIC=<90 [2]: > 128 µg/mL; MIC=<90 [3]: 0.0625 µg/mL (≈ 0.0759 µM); MIC=<90 [5]: 4 µg/mL (≈ 4.86 µM); MIC=<90 [6]: 128 µg/mL (≈ 156 µM); MIC=<90 [4]: > 128 µg/mL |
| COCCOc1ccc2oc3c4ccccc4oc(=O)c3c2c1CN1CCCC1=O | > 64 | – |
| O=C(NCC1CC1)c1c(O)ccc2oc3c4ccccc4oc(=O)c3c12 | > 64 | – |
| CNC(=O)c1c(-c2ccc(O)cc2)oc2ccc(O)c(CN3CCCCC3)c12 | 0.0313 (≈ 0.0823 µM) | – |
| O=c1oc2ccccc2c2oc3ccc(O)c(CN4CCCC4)c3c12 | 0.5 (≈ 1.49 µM) | – |
| O=C1CCCCCN1Cc1c(O)ccc2oc3c4ccccc4oc(=O)c3c12 | > 64 | – |
| O=c1oc2cc(O)ccc2c2oc3cc(O)c(O)c(CN4CCCCC4)c3c12 | 2 (≈ 5.24 µM) | – |
| Cc1cc(O)c(CN2CCCCC2)c2c1oc1c3ccccc3oc(=O)c12 | 0.125 (≈ 0.344 µM) | – |
| O=c1oc2ccccc2c2oc3cc(O)c(O)c(CN4CCCCC4)c3c12 | 4 (≈ 10.9 µM) | – |
| NC[C@H]1O[C@H](O[C@H]2[C@H](O)[C@@H](O[C@H]3O[C@H](CO)[C@@H](O)[C@H](N)[C@H]3O)[C@H](N)C[C@@H]2N)[C@H](O)[C@@H](O)[C@@H]1O | 2 (≈ 4.13 µM) | MIC=<90 [2]: > 128 µg/mL; MIC=<90 [3]: 2 µg/mL (≈ 4.13 µM); MIC=<90 [5]: 2 µg/mL (≈ 4.13 µM); MIC=<90 [6]: 2 µg/mL (≈ 4.13 µM); MIC=<90 [4]: > 128 µg/mL |
| O=c1oc2ccccc2c2oc3cc(CN4CCCCC4)c(O)cc3c12 | > 64 | – |
| CC1COc2c(N3CCN(C)CC3)c(F)cc3c(=O)c(C(=O)O)cn1c23 (stereo unspecified) | – | MIC=<90 [2]: 8 µg/mL (≈ 22.1 µM); MIC=<90 [3]: 0.5 µg/mL (≈ 1.38 µM); MIC=<90 [5]: 0.5 µg/mL (≈ 1.38 µM); MIC=<90 [6]: 0.5 µg/mL (≈ 1.38 µM); MIC=<90 [4]: 4 µg/mL (≈ 11.1 µM) |
| COCCOc1ccc2oc3c4ccccc4oc(=O)c3c2c1CN1CCCCC1=O | > 64 | – |
| COc1cc2oc3c4ccccc4oc(=O)c3c2c(CN2CCCCC2)c1O | 2 (≈ 5.27 µM) | – |
| O=c1oc2ccccc2c2oc3ccc(O)c(CN4CCCCC4)c3c12 | 0.125 to 0.25 (≈ 0.358 to 0.716 µM) | – |
| CCOC(=O)c1c(-c2ccccc2)oc2ccc(O)c(CN3CCC(C)CC3)c12 | 1 (≈ 2.54 µM) | – |
| CC(C)(C)c1cc(O)c(CN2CCCCC2)c2c1oc1c3cc(O)ccc3oc(=O)c12 | 0.125 (≈ 0.297 µM) | – |
| COc1ccc2oc3c4ccccc4oc(=O)c3c2c1C(=O)N1CCCCC1 | > 64 | – |
| O=c1oc2ccccc2c2oc3cc([N+](=O)[O-])c(O)c(CN4CCCCC4)c3c12 | > 64 | – |
| COc1ccc2oc3c4ccccc4oc(=O)c3c2c1CN1CCCCC1=O | > 64 | – |
